Assay results reported in patent US20240335395A1, “COMPOSITIONS AND METHODS FOR PREVENTING AND/OR TREATING DISEASE ASSOCIATED WITH IL-23 EXPRESSION” (ALLSPIM, priority 2021, published 2024).

What was measured:
[1] = system: IL-1ß; experiment: MSU-induced IL-1ß in knee joint tissue (multiplex microassay); type: in vivo, mouse; conditions: 2,4-D 100 mg/kg, CLC 1 mg/kg, DEX 0.5 mg/kg
Method: Mice (six per group) were treated with 2,4-D (100 mg/kg or 20 mg/kg, i.p.), CLC (1 mg/kg or 0.2 mg/kg, i.p.), DEX (0.5 mg/kg or 0.1 mg/kg, i.p.), or vehicle (20% polyoxyethylenesorbitan monooleate (Tween 80) plus PBS) 30 min before intra-articular stimulus with MSU (100 μg/10 μL, i.a.). Six mice with intra-articular injection with PBS alone served as a negative control.
Induction of MSU-Induced Knee Joint Inflammation. Male ICR (CD-1) mice (35-45 g, 10-12 weeks) were purchased from VitalRiver Inc (Beijing, China) and were kept in an animal care facility under controlled temperature of 21±1° C., humidity, and on a light/dark cycle, with ad libitum access to water and standard laboratory chow diet. Animal care and handling procedures were approved by the Animal Ethics Committee of GZUCM (Guangzhou University of Chinese Medicine). All efforts were made to minimize animal suffering and to reduce the number of animals used. Joint inflammation was induced by the intra-articular (i.a.) administration of MSU (200 μg/20 μl) into the right and left knee joints of mice under inhaled 3% isoflurane anesthesia. Control animals received an injection (i.a.) of sterile PBS (20 μL).
Cytokine Measurement. Mice were anesthetized and sacrificed. Knee joints were collected and frozen in liquid nitrogen. Samples were then homogenized in 500 μl of buffer containing protease inhibitors, centrifuged (3600 rpm, 4° C., 15 min) and supernatants were used to determine Th1/Th2/Th17 cytokine levels using a multiplex microassay (Qantibody® mouse TH17 Array 1 kit, Cat. No.: QAM-TH17-1; RayBiotech, Norcross, GA). Results were expressed as picograms (pg) of cytokine/mg of tissue.
Statistical Analysis. […] For in vitro experiments, microassays were performed in quadruplicate. p<0.05 was considered significant (*p<0.05, **p<0.01, ***p<0.001).

[2] = system: IL-23; experiment: IL-23 gene expression in RA-patient synovial cells (RT-qPCR); type: cell-based, human; conditions: 2 h
Method: Synovial fluid was freshly collected from 20 patients with rheumatoid arthritis (RA) by arthrocentesis. At two hours after treatment or not with 2,4-D, RA-patient synovial cells were directly lysed using TRIzol reagent (Invitrogen, USA) followed by RNA extraction according to the manufacturer's protocol. Finally, RNA was dissolved in 10 μL DEPC-treated water, quantified on a NanoDrop 2000 spectrophotometer (Thermo Scientific Inc., USA), and reverse-transcribed using the Super Script III First-Strand Synthesis System for RT-PCR kit (Thermo Scientific, USA) according to the manufacturer's protocol. PCR was performed in duplicate using SYBR Green qPCR master mix (Takara Biomedical Technology Co., Ltd, Dalian, China) on an ABI 7500 Real-Time PCR System (Thermo, USA). The cycling program was as follows: denaturation at 95° C. for 15 s, 40 cycles of 95° C. for 15 s and extension at 60° C. for 60 s, followed by melt curve generation. The ΔΔCT method was used to quantify relative mRNA levels as described in Example 1 above. The primer sequences specific for human IL-17 genes (hu-IL-17 Forward: 5′-[…]-3′; hu-IL-17 Reverse: 5′-GGCACTTTGCCTCCCAGAT-3′) (SEQ ID NOs 8 and 9, respectively) and IL-23 (see Example 1, above) were used.

[3] = system: TPA-induced psoriasis-like skin hyperplasia; experiment: TPA-induced psoriasis-like skin hyperplasia in BALB/c mice; type: in vivo, mouse
Method: Induction of TPA-induced psoriasis-like skin hyperplasia in mice treated with oral 2,4-D. Forty mice (BALB/c) were purchased from Guangdong Experimental Animal Center. All experiments were approved by the animal ethics committee of Guangzhou University of Chinese Medicine according to Chinese legislation on animal experiments. Mice (n=30) at 8 to 11 weeks of age received a daily topical dose of 15 μg TPA (Sigma) in 200 μl of acetone on the shaved back for day 1 and 4. This dose was empirically determined to cause the most optimal and reproducible skin inflammation in mice (data not shown). Control mice (n=10) were treated similarly with a control vehicle cream (Sigma). See FIG. 9 for an illustrative example of a mouse receiving topical TPA as compared to a control mouse receiving a control vehicle cream. Of the 30 mice that received topical TPA, 20 mice were treated orally with 0.2 mg (n=10) or 1 mg (n=10) 2,4-D daily until day 6. The remaining 10 untreated TPA mice served as a disease control. On day 7, dorsal skin was photographed and fixed in 10% formalin and stained with H&E (Haemotoxylin and Eosin). Epidermal thickness was quantified by Image J software.
Statistical analysis. Data are presented as the mean±SD for the in vivo animal study. Statistical analysis was performed using Student's t-test (paired 2-sample testing).

[4] = system: collagen induced arthritis (CIA) in DBA/1 mice; experiment: Collagen induced arthritis (CIA) in DBA/1 mice, clinical score; type: in vivo, mouse; conditions: for decrease of mean clinical score compared with control group: as from day 5 post-treatment
Excerpt: Induction of collagen induced arthritis (CIA) in DBA/1 mice treated with oral 2,4-D. Forty DBA/1 mice (8-12 weeks of age; 20 males and 20 females) were obtained from the Center for Experimental Animals in Beijing, China. The CIA model was established according to the standard Hooke Protocol (accessible at https://hookelabs.com/protocols/cialnduction_DBA1.html). Complete Freund's adjuvant (CFA) and incomplete Freund's adjuvant (IFA) were purchased from Hooke Laboratories. 35 days after immunization, the 40 immunized mice were distributed randomly into 4 groups (10 controls, 10 treated with 0.2 mg daily oral 2,4-D, 10 treated with 1 mg daily oral 2,4-D for 15 days). All animals were followed for an additional 15 days post-treatment.
CIA scoring. CIA is scored on a scale of 0 to 16 (0 to 4 for each paw, adding the scores for all 4 paws), using the following criteria:
Statistical analysis. Data are presented as the mean±SEM for the in vivo animal study. Statistical analysis was performed using Student's t-test (paired 2-sample testing).

Compound: COc1cc(O)c(OC)c(O)c1C(=O)/C=C/c1ccccc1 [2,4-D, 2′,4′-dihydroxy-3′,6′-dimethoxychalcone]
- decrease of IL-1ß in knee joint tissue [1]: 5.3 fold
- decrease of IL-23 expression ([2]; 1 μg/ml): 8 fold
- inhibition of IL-23 expression ([2]; 5 μg/ml): 65 fold
- thickness of back skin compared with normal skin of control mice ([3]; 0.2 mg daily oral): significantly higher
- thickness of back skin hyperplasia compared with untreated mice ([3]; 0.2 mg daily oral): significantly lower
- thickness of back skin compared with normal skin of control mice ([3]; 1 mg daily oral): similar
- thickness of back skin hyperplasia compared with untreated mice ([3]; 1 mg daily oral): significantly lower
- dorsal skin compared to mice receiving TPA only ([3]; 0.2 or 1 mg daily oral): improved in a dose-dependent manner
- decrease of mean clinical score compared with control group ([4]; high dose 1 mg per day oral): 2- to 7 fold
- suppression of CIA after withdrawal of treatment ([4]; high dose, 15 days after withdrawal): maintained
- decrease of mean clinical score compared with control group ([4]; low dose 0.2 mg per day oral): 2- to 3 fold
